From patent US6677307B2, “TGF-α polypeptides, functional fragments and methods of use therefor” (Kaleidos Pharma, Inc., priority 1999, dated 2004)

Assays:
[1] = system: kidney tissue (primarily glomeruli); assay: Cis-platinum kidney damage, H&E kidney histology; assay type: in vivo; settings: mice; CP 10 mg/kg ip; 10 μg/kg 6 hours prior to CP and 24 and 48 hours after CP
Procedure: In addition, administration of a TGF-α polypeptide, fragments, and mimetic to regenerate damaged tissue, for example, in kidney, an organ sensitive to such damage, is also disclosed herein. In an in vivo experiment, mice were administered 10 mg/kg of Cis-platinum as a single ip injection and treated mice administered 10 μg/kg a human TGF-α57 (R&D Systems, Minneapolis, Minn.). TGF-α57 was administered just before CP and in two additional doses after, by ip administration for a general systemic effect. Several organs or tissues were collected from the animals sacrificed 4 days after CP dose (or saline for no TGFα57) and tissues were examined histologically.
The cuboidal epithelium of the proximal convuluted tubule was also damaged.

mouse spleen = assay: in vivo model of general hematopoiesis with Cis Platinum (spleen weights, platelets, spleen histology)
Procedure: Hematopoietic and myeloid cells are red blood cell precursors, platelet precursors (megakaryocytes), and immune (white) blood cell precursors of various forms of T cells, B cells and macrophages. […] It should be noted that references to TGF-α as a human 50 amino acid polypeptide further include reference to human TGFα57 as an alternative variant.
The experiment procedure dosed those animals to be treated with TGFα 57 4 hours prior to challenge with CP. A single dose of CP was administered. Additional doses (as indicated) of TGFα 57 were made at 24 hours, 48 hours, 72 hours and 96 hours after the CP dose. All doses were made by IP injection. Controls were dosed with saline instead of either or both of CP and TGF-α57.
The animals were sacrificed about 4 hours after the last TGF-α57 (or saline) dose. Key organs were removed and spleens were immediately weighed after a clean incision. All the relevant organs were placed in formalin, transported for histopathological analysis, mounted, sectioned, stained and observed. The results of this histological analysis of the spleens for hematopoietic effect and the GI tract (below) provided surprising and unexpected data of the effect of TGF-α57 activity.
There was erythrocytes in the perifollicular zone surrounding both the T cell and B cell compartments of white pulp. […] The T cells stained for the T-cell receptor but were negative for CD4 and CD8 markers. Accordingly, the T-cells are double null T-cell progenitors induced by TGF-α administration.

[2] = system: human CD34 positive and CD38 negative cells; assay: liquid primary culture of human bone-marrow enriched CD34 cells; assay type: cell-based
Procedure: An additional experiment investigated TGF-α activity (using TGF-α57) on human bone-marrow enriched CD34 cells. FACS-sorted human CD34 positive and CD38 negative cells were cultured in liquid primary cultures in Iscove's modified Dulbecco's media with supplements. […] Stem Cell Factor (SCF) was used as a positive control (500 ng/ml) and provided a three-fold increase in CD34 positive cells. When a combination of SCF (500 ng/ml) and TGFα (10 ng/ml) was added, a synergistic 12-fold increase in CD34 positive cells was observed.

TGF-α57: 57 amino acid polypeptide of formula VI: Ser-Leu-Ser-Leu-Pro-Ala-Met-Human TGFα
glomeruli damage (H&E kidney histology) [1]: essentially protected the glomeruli from damage
spleen weights (mouse spleen; CP 5 mg/kg or 10 mg/kg, 10 μg/kg or 50 μg/kg IP, FIG. 3): return to normal spleen weights
spleen histology (H&E) (mouse spleen; CP 10 mg/kg and 50 μg/kg): increased number of T cells and erythrocytes in the perifollicular zone
platelet counts (mouse spleen; with CP, as opposed to CP alone): higher
increase in CD34 positive progenitor cells ([2]; added alone, 10 ng/ml): 35%
proliferation of dendritic precursor cells ([2]; treated cultures): stimulation of the proliferation of dendritic precursor cells
